Laboratory results as given in ChEMBL document CHEMBL1201862, “PubChem BioAssay data set” (2004).
Activity calls are given as the source filed them.

Legend:
[1] = (§1) Counterscreen for antagonists of the orexin 1 receptor (OX1R; HCRTR1): Fluorescence-based cell-based high throughput dose response assay to identify antagonists of the parental CHO cell line. [Related pubchem assays (depositor defined):AID434989, AID435008, AID463079, AID485270, AID492963, AID492964, AID492965, AID493232, AID504699, AID504701]; format: functional
[2] = target: T1, Replicative DNA helicase DnaB (Mycobacterium tuberculosis, UniProt P9WMR3); test: DnaB intein splicing inhibitors, dose response, biochemical, cell-free fluorescence (AID 449749); format: functional
T1 sequence (P9WMR3 whole entry): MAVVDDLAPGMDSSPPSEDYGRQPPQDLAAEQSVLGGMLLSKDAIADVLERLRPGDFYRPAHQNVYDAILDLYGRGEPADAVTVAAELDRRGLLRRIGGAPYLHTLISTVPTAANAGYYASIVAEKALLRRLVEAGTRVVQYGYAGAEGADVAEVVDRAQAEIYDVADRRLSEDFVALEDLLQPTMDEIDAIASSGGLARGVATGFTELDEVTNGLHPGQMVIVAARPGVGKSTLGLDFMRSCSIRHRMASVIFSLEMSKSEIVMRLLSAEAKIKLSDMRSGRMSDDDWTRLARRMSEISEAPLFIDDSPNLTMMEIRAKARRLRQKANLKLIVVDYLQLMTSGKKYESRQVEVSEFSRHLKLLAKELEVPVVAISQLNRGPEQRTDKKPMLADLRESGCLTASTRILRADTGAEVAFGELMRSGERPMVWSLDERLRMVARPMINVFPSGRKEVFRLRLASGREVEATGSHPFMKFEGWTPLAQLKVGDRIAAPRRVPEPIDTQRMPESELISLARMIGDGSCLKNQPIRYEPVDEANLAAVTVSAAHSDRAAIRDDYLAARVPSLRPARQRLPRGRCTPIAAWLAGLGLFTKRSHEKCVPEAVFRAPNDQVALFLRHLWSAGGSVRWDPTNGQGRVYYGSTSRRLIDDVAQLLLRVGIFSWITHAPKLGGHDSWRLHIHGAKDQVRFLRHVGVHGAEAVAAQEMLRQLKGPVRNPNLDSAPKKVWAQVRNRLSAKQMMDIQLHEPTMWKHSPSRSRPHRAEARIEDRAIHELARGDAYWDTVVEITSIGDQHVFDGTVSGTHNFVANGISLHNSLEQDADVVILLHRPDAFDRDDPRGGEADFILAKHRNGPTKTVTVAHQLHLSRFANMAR

[3] = target: T2, Orexin/Hypocretin receptor type 1 (Homo sapiens, UniProt O43613); test: Homogeneous Time Resolved Fluorescence (HTRF)-based cell-based high throughput dose response assay for antagonists of the orexin 1 receptor (OX1R; HCRTR1). [Related pubchem assays (depositor defined):AID434989, AID435008, AID463079, AID485270, AID492963, AID492964, AID492965, AID493232, AID504717, AID504718]; format: functional
T2 sequence (O43613 whole entry): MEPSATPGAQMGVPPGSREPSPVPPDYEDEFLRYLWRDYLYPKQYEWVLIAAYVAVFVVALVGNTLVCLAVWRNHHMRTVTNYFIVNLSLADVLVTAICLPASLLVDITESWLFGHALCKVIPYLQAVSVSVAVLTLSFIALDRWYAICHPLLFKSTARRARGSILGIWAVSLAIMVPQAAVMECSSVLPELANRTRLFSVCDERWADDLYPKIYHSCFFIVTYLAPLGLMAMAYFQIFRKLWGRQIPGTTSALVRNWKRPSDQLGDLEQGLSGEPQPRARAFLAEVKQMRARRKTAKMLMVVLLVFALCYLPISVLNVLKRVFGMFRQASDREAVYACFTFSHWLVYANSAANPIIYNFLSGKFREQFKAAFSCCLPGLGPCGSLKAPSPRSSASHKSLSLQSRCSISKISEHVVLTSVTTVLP

CHO-K1 = test: as §1, with “Homogeneous time resolved fluorescence (HTRF)-based” for “Fluorescence-based”, “cell-based” for “cell-based high throughput”, “CHO-K1” for “CHO”; format: functional; details: Cricetulus griseus;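 further: potency for inhibition of ATP-stimulated IP1 production as antagonists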
Protein RecA = target: T3, Protein RecA (Mycobacterium tuberculosis, UniProt P9WHJ3); test: Fluorescence Cell-Free Homogeneous Dose Retest to Identify Inhibitors of RecA-Intein Splicing Activity. [Related pubchem assays (depositor defined):AID2097, AID2223, AID489010, AID492950]; format: functional
T3 sequence (P9WHJ3 whole entry): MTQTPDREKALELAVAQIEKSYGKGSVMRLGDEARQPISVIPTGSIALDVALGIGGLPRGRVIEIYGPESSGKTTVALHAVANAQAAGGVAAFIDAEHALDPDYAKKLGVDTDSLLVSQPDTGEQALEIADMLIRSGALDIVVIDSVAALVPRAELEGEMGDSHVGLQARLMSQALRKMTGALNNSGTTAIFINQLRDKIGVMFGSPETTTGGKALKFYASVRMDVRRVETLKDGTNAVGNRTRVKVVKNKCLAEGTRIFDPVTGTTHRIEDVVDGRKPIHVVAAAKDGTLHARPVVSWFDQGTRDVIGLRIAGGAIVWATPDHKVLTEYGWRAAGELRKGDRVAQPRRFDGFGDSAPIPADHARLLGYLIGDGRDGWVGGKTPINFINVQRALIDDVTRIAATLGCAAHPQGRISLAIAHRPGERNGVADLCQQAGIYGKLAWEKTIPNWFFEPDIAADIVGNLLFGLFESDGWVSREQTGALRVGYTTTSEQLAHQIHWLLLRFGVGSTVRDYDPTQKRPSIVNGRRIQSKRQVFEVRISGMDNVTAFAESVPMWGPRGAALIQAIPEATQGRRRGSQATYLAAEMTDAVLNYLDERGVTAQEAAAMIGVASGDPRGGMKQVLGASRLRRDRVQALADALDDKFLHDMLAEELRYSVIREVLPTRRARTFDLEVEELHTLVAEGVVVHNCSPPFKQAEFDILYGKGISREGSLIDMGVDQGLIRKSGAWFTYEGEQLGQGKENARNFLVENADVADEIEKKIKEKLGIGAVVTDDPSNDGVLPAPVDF

[4] = target: T2, Orexin/Hypocretin receptor type 1; test: Fluorescence-based cell-based high throughput dose response assay for antagonists of the orexin 1 receptor (OX1R; HCRTR1). [Related pubchem assays (depositor defined):AID434989, AID435008, AID463079, AID485270, AID492963, AID492964, AID492965, AID493232, AID504717, AID504718]; format: functional
[5] = target: T4, Ubiquitin-conjugating enzyme E2 N (Homo sapiens, UniProt P61088); format: functional
T4 sequence (P61088 whole entry): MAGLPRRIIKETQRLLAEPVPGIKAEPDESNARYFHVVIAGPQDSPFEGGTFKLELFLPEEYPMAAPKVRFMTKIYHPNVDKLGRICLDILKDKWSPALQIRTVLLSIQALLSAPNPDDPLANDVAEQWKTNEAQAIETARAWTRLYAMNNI

[6] = target: T4, Ubiquitin-conjugating enzyme E2 N; format: functional; remark: listed apart in the source
Bcl-2-related protein A1 = target: T5, Bcl-2-related protein A1 (Mus musculus, UniProt Q07440); format: functional;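 further: confirmatory dose–response counterscreen on Bfl-1, used to check hits from a UBC13 polyubiquitin inhibitor campaign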
T5 sequence (Q07440 whole entry): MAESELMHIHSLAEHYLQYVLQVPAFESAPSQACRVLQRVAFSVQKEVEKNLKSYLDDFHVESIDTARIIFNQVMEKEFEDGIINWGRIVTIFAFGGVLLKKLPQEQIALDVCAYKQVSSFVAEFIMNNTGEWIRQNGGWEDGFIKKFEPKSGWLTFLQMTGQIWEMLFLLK

[7] = target: Voltage-dependent T-type calcium channel subunit alpha-1H (Homo sapiens, UniProt O95180); test: Cav3.2 T-type channel blockers, cell-based, SynthLib3 library, HEK293 Cav3.2, fluorescence (AID 493041); format: functional
Sequence of Voltage-dependent T-type calcium channel subunit alpha-1H (O95180 whole entry): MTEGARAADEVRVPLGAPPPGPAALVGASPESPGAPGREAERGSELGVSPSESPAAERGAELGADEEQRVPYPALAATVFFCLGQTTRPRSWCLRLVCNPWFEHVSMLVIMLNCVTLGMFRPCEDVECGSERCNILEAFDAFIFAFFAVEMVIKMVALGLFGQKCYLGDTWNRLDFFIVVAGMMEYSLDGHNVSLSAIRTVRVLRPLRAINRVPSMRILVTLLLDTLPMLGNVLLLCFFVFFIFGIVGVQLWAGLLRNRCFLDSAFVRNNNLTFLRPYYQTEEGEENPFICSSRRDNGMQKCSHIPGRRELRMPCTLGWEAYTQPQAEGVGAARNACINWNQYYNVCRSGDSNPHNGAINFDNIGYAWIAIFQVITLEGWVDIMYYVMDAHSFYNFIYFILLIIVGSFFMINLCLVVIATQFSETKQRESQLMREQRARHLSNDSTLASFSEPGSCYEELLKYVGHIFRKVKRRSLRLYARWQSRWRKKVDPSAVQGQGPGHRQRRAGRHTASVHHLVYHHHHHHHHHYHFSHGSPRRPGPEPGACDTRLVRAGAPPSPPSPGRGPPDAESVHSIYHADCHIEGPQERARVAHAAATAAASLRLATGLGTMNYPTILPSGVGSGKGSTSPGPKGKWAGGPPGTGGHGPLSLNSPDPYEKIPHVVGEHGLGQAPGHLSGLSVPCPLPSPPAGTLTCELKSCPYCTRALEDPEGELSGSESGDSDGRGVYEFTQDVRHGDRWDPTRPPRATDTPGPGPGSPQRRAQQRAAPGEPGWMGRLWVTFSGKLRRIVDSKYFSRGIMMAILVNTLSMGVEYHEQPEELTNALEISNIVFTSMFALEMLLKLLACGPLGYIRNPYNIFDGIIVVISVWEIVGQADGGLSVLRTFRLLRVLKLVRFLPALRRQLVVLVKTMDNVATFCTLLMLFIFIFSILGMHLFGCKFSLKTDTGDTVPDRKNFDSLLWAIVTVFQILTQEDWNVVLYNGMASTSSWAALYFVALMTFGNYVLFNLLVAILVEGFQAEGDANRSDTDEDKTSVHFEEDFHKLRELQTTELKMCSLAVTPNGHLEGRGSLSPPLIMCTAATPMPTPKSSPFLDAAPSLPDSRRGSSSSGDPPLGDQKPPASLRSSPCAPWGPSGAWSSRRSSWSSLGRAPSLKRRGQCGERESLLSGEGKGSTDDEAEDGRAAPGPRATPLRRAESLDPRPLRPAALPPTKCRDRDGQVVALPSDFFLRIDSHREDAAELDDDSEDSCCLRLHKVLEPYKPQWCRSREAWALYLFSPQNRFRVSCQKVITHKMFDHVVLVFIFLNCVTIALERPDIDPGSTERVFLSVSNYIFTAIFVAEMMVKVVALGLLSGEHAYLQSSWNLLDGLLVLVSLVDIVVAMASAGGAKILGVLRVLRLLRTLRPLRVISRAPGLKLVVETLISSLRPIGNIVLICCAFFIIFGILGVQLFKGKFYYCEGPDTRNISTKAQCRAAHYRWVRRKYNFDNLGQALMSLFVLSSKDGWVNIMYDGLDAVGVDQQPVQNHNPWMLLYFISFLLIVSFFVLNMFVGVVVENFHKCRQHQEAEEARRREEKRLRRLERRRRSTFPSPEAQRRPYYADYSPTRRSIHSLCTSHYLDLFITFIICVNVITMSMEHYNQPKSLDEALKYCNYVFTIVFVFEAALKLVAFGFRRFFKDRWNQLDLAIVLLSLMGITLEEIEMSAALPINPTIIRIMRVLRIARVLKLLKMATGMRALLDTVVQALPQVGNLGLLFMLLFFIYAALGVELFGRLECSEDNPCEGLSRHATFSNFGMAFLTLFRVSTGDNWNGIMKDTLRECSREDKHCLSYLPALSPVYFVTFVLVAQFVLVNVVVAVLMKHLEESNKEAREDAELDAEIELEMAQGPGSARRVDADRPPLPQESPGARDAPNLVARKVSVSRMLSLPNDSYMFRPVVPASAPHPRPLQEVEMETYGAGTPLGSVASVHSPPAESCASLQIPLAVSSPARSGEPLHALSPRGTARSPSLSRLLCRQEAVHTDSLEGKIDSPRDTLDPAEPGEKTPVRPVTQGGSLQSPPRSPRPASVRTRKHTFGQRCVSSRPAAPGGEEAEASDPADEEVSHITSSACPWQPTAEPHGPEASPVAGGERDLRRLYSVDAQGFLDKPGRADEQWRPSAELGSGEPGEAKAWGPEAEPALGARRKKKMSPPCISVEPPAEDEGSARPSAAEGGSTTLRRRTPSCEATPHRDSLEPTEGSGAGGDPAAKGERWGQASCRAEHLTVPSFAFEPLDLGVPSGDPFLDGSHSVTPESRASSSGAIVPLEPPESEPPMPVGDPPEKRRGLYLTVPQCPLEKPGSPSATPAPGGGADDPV

[8] = Intein inhibitors as potential Tuberculosis drugs, a cytotoxicity screen. [Related pubchem assays (depositor defined):AID2221, AID2223, AID434968, AID435010, AID449749, AID449750, AID489010]; format: functional
[9] = target: G-protein coupled receptor 55 (Homo sapiens, UniProt Q9Y2T6); test: GPR55 antagonists, SAR follow-up, counter-screen for GPR35 antagonist project, imaging, image-based (AID 2397); format: functional
Sequence of G-protein coupled receptor 55 (Q9Y2T6 whole entry): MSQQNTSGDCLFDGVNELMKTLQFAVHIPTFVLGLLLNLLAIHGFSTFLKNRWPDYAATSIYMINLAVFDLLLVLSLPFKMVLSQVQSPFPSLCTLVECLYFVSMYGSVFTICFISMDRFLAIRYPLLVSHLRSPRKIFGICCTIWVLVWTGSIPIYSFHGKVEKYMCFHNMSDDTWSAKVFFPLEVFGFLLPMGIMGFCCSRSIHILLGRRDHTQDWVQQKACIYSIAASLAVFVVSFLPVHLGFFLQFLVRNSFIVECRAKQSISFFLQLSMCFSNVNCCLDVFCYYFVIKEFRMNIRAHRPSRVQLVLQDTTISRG

[10] = target: T6, G-protein coupled receptor 35 (Homo sapiens, UniProt Q9HC97); test: SAR Analysis for the identification of Selective Antagonists of ERK1/2 Activity in GPR35-Overexpressing U2OS Cells. [Related pubchem assays: 2079, 2058 ]; format: functional, cell-based
T6 sequence (Q9HC97 whole entry): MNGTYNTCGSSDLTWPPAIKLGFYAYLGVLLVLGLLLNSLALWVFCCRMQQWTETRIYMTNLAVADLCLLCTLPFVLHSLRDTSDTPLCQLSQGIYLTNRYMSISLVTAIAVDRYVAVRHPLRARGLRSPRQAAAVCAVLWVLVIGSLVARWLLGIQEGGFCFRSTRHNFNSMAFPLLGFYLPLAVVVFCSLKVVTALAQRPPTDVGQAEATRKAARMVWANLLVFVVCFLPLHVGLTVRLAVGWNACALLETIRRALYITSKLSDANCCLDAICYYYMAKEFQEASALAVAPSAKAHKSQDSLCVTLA

[11] = target: T6, G-protein coupled receptor 35; test: GPR35 antagonists blocking zaprinast-driven arrestin recruitment, primary screen, imaging, U2OS, beta-arrestin-GFP, zaprinast agonist (AID 2058); format: functional;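 further: antagonist potency meaning inhibition of agonist-induced arrestin redistribution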
[12] = target: Glyceraldehyde-3-phosphate dehydrogenase (Homo sapiens, UniProt P04406)
Sequence of Glyceraldehyde-3-phosphate dehydrogenase (P04406 whole entry): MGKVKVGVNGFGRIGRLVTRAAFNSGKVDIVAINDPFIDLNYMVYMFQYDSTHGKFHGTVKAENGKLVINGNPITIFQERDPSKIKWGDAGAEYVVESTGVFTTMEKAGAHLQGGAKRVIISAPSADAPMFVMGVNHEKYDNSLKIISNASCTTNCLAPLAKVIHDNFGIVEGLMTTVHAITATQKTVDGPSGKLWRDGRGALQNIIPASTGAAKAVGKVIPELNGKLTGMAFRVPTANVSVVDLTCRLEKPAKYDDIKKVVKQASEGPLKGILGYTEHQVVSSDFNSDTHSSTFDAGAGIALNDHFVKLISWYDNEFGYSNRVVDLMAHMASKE

[13] = target: T7, Alkaline phosphatase, tissue-nonspecific isozyme (Homo sapiens, UniProt P05186); test: human TNAP enzyme inhibitors, SAR follow-up, biochemical, luminescent, dose response (AID 1056)
T7 sequence (P05186 whole entry): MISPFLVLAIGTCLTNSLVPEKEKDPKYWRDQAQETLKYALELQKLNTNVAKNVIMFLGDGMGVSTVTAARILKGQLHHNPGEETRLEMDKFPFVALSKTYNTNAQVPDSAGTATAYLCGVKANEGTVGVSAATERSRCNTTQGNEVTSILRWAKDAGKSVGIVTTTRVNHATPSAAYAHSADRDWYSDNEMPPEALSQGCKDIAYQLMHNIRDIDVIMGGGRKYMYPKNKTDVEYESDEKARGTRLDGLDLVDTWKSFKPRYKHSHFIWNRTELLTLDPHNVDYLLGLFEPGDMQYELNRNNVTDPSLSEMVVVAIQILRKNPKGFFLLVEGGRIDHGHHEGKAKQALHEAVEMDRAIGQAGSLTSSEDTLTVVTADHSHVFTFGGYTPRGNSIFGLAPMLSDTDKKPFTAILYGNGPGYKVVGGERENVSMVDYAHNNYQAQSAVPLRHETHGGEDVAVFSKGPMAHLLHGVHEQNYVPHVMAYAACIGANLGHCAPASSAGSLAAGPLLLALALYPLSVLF

[14] = target: Alkaline phosphatase, placental type (Homo sapiens, UniProt P05187); test: PLAP enzyme inhibitors, confirmation, biochemical, luminescence (AID 1512); format: functional
Sequence of Alkaline phosphatase, placental type (P05187 whole entry): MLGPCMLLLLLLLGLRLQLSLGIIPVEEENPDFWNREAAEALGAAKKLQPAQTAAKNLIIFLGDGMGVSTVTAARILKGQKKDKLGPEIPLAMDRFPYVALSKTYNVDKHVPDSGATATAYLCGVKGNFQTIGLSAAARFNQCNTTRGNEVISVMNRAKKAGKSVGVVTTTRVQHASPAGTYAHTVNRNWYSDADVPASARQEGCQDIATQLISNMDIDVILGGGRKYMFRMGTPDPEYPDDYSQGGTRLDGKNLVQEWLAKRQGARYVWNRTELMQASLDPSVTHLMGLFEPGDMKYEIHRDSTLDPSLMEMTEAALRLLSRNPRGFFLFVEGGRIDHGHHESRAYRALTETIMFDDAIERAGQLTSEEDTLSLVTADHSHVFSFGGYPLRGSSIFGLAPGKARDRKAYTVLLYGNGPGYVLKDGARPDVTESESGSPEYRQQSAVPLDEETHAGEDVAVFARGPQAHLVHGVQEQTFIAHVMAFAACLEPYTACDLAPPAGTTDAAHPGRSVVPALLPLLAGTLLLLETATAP

[15] = target: T8, Heat shock factor protein 1 (Mus musculus, UniProt P38532); test: HSF1 potentiators in luciferase reporter cells, confirmation, cell-based, NIH3T3, luminescence, dose retest (AID 435004); format: functional;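 further: stress induced by proteasome inhibitor MG132 added 30 min after compound; luciferase reporter driven by HSF1 response element in NIH3T3 cells; actives raise luminescence as potentiators of the MG132 stress response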
T8 sequence (P38532 whole entry): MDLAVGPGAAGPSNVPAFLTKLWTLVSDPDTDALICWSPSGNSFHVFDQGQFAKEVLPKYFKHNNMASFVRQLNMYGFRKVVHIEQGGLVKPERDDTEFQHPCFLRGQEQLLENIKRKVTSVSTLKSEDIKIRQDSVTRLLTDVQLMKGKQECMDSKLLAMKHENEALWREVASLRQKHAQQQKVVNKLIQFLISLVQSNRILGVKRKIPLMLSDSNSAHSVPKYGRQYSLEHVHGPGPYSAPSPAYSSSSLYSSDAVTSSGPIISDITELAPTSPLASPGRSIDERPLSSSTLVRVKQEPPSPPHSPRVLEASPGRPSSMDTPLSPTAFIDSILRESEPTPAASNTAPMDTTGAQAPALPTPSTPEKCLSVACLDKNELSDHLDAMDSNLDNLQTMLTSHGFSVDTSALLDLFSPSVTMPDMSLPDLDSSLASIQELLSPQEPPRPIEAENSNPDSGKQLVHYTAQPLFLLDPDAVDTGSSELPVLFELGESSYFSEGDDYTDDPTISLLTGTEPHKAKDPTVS

[16] = target: Glucose-6-phosphate 1-dehydrogenase (Homo sapiens, UniProt P11413); test: human G6PD enzyme inhibitors, dose response, selectivity assay for P. falciparum G6PD inhibitor project, biochemical, fluorescence (AID 504792); format: functional
Sequence of Glucose-6-phosphate 1-dehydrogenase (P11413 whole entry): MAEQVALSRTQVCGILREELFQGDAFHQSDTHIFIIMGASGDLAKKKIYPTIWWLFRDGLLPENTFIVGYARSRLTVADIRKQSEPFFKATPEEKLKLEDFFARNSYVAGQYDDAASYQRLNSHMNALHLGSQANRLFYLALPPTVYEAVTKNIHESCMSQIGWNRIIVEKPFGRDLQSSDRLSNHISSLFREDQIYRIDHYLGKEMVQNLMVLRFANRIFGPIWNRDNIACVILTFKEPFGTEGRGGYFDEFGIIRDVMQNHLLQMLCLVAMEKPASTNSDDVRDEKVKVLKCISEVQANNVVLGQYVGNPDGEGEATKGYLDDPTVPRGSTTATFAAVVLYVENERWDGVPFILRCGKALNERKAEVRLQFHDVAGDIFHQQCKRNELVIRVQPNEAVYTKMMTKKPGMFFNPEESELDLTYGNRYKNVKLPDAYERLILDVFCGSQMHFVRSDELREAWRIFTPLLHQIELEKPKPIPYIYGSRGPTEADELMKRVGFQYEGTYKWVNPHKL

[17] = Luminescence Cell-Based Dose Retest to Confirm Inhibitors of Cancer Stem Cells. [Related pubchem assays (depositor defined):AID2717, AID2721]; format: functional; details: Homo sapiens
[18] = target: Intestinal-type alkaline phosphatase (Homo sapiens, UniProt P09923); test: human intestinal alkaline phosphatase activators, dose response, biochemical, luminescence, uHTS hits (AID 463120); format: functional
Sequence of Intestinal-type alkaline phosphatase (P09923 whole entry): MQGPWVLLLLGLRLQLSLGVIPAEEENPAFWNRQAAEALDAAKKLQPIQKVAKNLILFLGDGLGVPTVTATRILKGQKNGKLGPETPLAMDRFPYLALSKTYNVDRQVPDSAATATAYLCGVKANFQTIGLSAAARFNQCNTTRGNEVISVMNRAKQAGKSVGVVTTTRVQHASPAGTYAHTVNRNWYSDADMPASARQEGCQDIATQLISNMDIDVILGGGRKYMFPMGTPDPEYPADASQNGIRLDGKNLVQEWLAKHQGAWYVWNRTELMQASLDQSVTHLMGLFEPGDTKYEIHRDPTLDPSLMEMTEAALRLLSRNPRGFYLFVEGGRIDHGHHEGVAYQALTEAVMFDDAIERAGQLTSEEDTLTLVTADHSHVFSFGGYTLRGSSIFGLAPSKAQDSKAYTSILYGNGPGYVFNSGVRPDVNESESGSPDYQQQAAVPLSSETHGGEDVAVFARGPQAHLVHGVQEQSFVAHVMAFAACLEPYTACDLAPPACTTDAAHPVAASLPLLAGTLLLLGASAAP
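Wherever CC50 is given: cells exposed to compound for 72 hours before luminescence readout.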

Cc1ccc(/C=C2\Sc3ccccc3C2=O)s1
IC50 [1]: > 49.7 µM (inactive) | AC50 [2]: 11.8 µM (active) | IC50 [3]: 23.1 µM (inactive) | IC50 (CHO-K1): > 66.2 µM (inactive) | EC50 (Protein RecA): 4.87 µM (active) | IC50 [4]: 22.5 µM (inactive)

COC(=O)c1c(-c2ccc(SC)cc2)sc2ccc(OC)cc12
IC50 [5]: 18.9 µM (active) | IC50 [6]: > 20 µM (inactive) | IC50 (Bcl-2-related protein A1): > 20 µM (inactive)

CCCN1C[C@@H]2C(CNC(=O)c3cc(Cl)cc(Cl)c3)[C@@H]2C1 (some centres not stated)
EC50 [7]: 10 µM (active)

CC(Cc1nnc(NC(=O)COc2ccc(F)cc2Cl)o1)CC(C)(C)C (configuration not stated)
EC50 [7]: 1.2 µM (active)

N#Cc1ccc(-n2c(-c3ccccc3)nnc2-c2ccccc2)cc1C#N
AC50 [2]: 3.83 µM (active) | CC50 [8]: > 40 µM (active) | EC50 (Protein RecA): 3.36 µM (active)

O=C(CCCN1C(=O)S/C(=C\C=C\c2ccccc2)C1=O)Nc1ccc(C(=O)O)cc1
IC50 [9]: 12.9 µM (inactive) | IC50 [10]: 9.54 µM (active) | IC50 [11]: 1.26 µM (active) | AC50 [2]: 39.2 µM (active) | EC50 (Protein RecA): 51.2 µM (active)

CC1(C)CC(=O)c2c(n[nH]c2Cc2ccccc2)C1
IC50 [12]: > 100 µM (not active) | IC50 [13]: 1.24 µM (active) | IC50 [14]: > 100 µM (inactive)

Cc1ccc(Sc2ccc(NC(=O)CCl)cc2)c(C)c1
AC50 [2]: 2.5 µM (active) | CC50 [8]: 9.81 µM (active) | EC50 [15]: 9.67 µM (active) | EC50 (Protein RecA): 0.718 µM (active)

NCCNc1ccc(C(=O)N2c3ccccc3Sc3ccccc32)cc1[N+](=O)[O-]
IC50 [5]: 9.58 µM (active) | IC50 [16]: > 80 µM (inactive) | IC50 [6]: 10.9 µM (active) | AC50 [17]: 6.81 µM (active) | IC50 (Bcl-2-related protein A1): > 20 µM (inactive)

Cc1ccc(NC(=O)C2CC(=O)Nc3nc4ccccc4n32)c(C)c1 (configuration not stated)
EC50 [18]: 34.5 µM (active)
